Test [1] has as its target T1, GFP-AR T877A (LNCaP mutation) (Homo sapiens, UniProt P10275, T878A).
T1 construct: expressed in transfected cells
T1 sequence (P10275 1-920 T878A): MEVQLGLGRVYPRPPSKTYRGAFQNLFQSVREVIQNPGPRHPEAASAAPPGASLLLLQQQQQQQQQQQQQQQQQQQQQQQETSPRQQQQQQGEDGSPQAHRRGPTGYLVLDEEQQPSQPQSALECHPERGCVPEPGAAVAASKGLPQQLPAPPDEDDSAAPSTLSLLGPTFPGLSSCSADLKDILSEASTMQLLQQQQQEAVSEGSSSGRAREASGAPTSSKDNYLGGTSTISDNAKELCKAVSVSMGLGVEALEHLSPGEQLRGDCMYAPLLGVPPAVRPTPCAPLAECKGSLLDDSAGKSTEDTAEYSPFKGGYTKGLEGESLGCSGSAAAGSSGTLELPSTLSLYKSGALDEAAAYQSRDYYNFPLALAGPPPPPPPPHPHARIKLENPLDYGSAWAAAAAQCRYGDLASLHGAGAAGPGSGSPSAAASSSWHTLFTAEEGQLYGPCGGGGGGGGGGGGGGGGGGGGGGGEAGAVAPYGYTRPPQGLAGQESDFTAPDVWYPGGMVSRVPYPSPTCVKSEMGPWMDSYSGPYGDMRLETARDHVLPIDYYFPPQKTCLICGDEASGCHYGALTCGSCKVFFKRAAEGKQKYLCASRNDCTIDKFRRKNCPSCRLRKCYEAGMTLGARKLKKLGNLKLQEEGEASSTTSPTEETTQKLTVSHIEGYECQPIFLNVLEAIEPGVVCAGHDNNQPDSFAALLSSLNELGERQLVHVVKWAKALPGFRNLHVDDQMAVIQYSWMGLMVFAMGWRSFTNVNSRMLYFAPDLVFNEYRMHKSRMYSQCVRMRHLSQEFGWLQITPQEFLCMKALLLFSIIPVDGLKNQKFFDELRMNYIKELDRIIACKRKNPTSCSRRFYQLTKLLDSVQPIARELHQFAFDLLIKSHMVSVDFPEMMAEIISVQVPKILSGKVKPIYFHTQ
Nature of the test: HT imaging multiplex assay, all measurements together, HeLa GFP-AR T877A. It is filed as cell-based.

The target of test [2] is T2, GFP-AR (wild type androgen receptor) (Homo sapiens, UniProt P10275).
T2 sequence (P10275 1-920): T1 sequence (P10275 1-920 T878A) with A878T
Nature of the test: HT imaging: AR nuclear hyperspeckling (NVAR) in stable HeLa GFP-AR cells.
Text: (§1) In general, 49 images were captured per well for image analysis.

For test [3], the target named is T2, GFP-AR (wild type androgen receptor). In words: HT imaging: pARR2PB-dsRED2skl transcriptional reporter gene activity (CORR2) in stable HeLa GFP-AR cells. It is filed as cell-based. More on the design: expressed in transfected cells. The source says: Cells were imaged in PBS.
In general terms: In a reporter assay the amount or activity of a reporter protein is the signal.

The test system of test [4] is HeLa GFP-AR cells. In words: Cell cycle analysis by DNA content (DAPI)/EdU incorporation in unsynchronized cells. It is filed as cell-based, human. The settings on record: for EC50: Homo sapiens, HeLa, 18 h. Here is the method:
To perform these studies, we simplified the HCS cell cycle analysis techniques described by Gesparri et al. to a DNA content (DAPI)/EdU incorporation biparametric analysis to identify G1, S phase, and G2 cells in unsynchronized growing cells (Fig. 6A). Cells were prepared as normal except with a brief 30 minute exposure to 10 µM EdU, which will incorporate into newly synthesized DNA similar to BrdU, prior to fixation. During image analysis, total nuclear DAPI signal (DNA) and mean nuclear EdU signal from each cell was quantified and used to determine cell cycle.
For experiments in which cell cycle effects were determined, cells were labeled using an Invitrogen Click-iT cell cycle analysis kit using supplied protocols. Prior to fixation, cells were exposed to 10 µM EdU for 30 minutes. Cells with EdU incorporation were labeled by an EdU specific antibody conjugated to an A647 florescent marker. Because the Click-iT labeling decreases GFP signal intensity, AR was labeled using an Anti-AR antibody (Dr. Nancy Weigel) and A488 secondary antibody (Molecular Probes).

The target in test [5] is T3, GFP-AR F764L (AIS mutation) (Homo sapiens, UniProt P10275, F765L).
T3 construct: expressed in transfected cells
T3 sequence (P10275 1-920 F765L): T1 sequence (P10275 1-920 T878A) with F765L, A878T
In words: HT imaging multiplex assay, all three parameters together, HeLa GFP-AR F764L. The settings on record: read-out: maximal responses (three parameters), % of that observed with WT AR. It is filed as cell-based.

For test [6], the target named is T2, GFP-AR (wild type androgen receptor). In words: HT imaging: AR nuclear translocation (FLIN) in stable HeLa GFP-AR cells.
Text: as §1
Test [7] shares this target. In words: HT imaging multiplex assay, all three parameters together (FLIN, NVAR, CORR2), HeLa GFP-AR.
Text: as §1

Residue numbers refer to the chain shown, from its start. Where two headings read alike, the source gives them in different places.

Regarding `CC(C)(O)C(=O)Nc1ccc([N+](=O)[O-])c(C(F)(F)F)c1` [OHF, o-hydroxyflutamide], the “concentration at which agonist effect / activation of the T877A mutant is observed” value in test [1] (compound alone) was in the range of 75 to 85 nM. In addition, the “induction of nuclear hyperspeckling (in words)” value in test [2] (compound alone) is “no significant hyperspeckling”. The “induction of transcriptional reporter gene activity (in words)” value in test [3] (compound alone) was “no significant hyperspeckling or induction of transcription”. Also, the “effect on the cell cycle (in words)” value in test [4] (18 hr treatment) is given as “did not have any appreciable effect on the cell cycle”.

Turning to `C[C@]1(O)CC[C@H]2[C@@H]3CCC4=CC(=O)CCC4=C3C=C[C@@]21C` [R1881, Methyltrienolone], the “difference of results from those observed with WT-AR” value in test [1] is reported as no more than 1%. Further, the Emax in test [5] was in the range of 40 to 60%. In addition, in test [6], the “cells with a majority of the GFP signal in the nucleus” value is 95–97%, the “more AR in the nucleus in G2 cells compared to G1 cells” value is given as 8–12% and the “time AR distribution remained nuclear after ligand pulse” value is listed as “up to 15 hr”. For the same molecule, the “concentration at which saturation of response is observed” value in test [7] (FLIN, NVAR, CORR2, titration 10−6 M to 10−11 M) is listed as “≈ 100 nM”. Further, the “S % (I + II)” value in test [4] (100 nM, untreated control 42.6) is 0.7%. Moreover, in test [4] (read-out: EC50 of G1/S block), the EC50 stood at 0.1 ± 0.03 nM. Also, the EC50 in test [4] (read-out: EC50 of reduction in S-phase cells) turned out to be 0.07 ± 0.02 nM.

In the case of `C[C@@H]1CC2=CC(=O)CC[C@@H]2[C@H]2CC[C@@]3(C)[C@@H](CC[C@]3(C)O)[C@@H]21` [Mibolerone, mibolerone], the “difference of results from those observed with WT-AR” value in test [1] (compound alone) is no more than 1%. Besides, the Emax in test [5] fell in the range of 85 to 105%.

As to `CC(C)=CC(=O)O[C@H]1Cc2cc3ccc(=O)oc3cc2OC1(C)C` [Decursin], the IC50 (as a rule, the concentration that inhibits the measured activity by half) came out at 12.3 ± 0.43 µM in test [2], 13.2 ± 0.152 µM in test [6] and 10.6 ± 0.865 µM in test [3]. Also, the “reduction/loss of agonist-induced hyperspeckling (NVAR)” value in test [2] (with 10 nM R1881) is on record as 94%. In test [6], this molecule registered an EC50 of 0.853 ± 0.0884 µM. Moreover, the “decrease in R1881-induced nuclear translocation” value in test [6] (with 10 nM R1881) is on record as 95%. For the same molecule, the “decrease in transcriptional reporter gene activity (dsRED2skl reporter signal)” value in test [3] (with 10 nM R1881) amounted to 45%.

For the molecule `CC(C)(C)CC(C)(C)c1ccc(O)cc1` [Octophenol], the “response on any of the three parameters measured (in words)” value in test [7] (compound alone) is given as “did not yield a significant response”. Besides, the “response on any of the three parameters / AR antagonistic activity (in words)” value in test [7] (with 10 nM R1881 (competition)) is on record as “did not yield a significant response”.

(Values after PMC2572143, “Androgen Receptor Functional Analyses by High Throughput Imaging: Determination of Ligand, Cell Cycle, and Mutation-Specific Effects” (PLoS ONE, 2008).)
